The assay addresses T1, human PAH with the R408W mutation (Homo sapiens, UniProt P00439, R408W).
T1 construct: expressed in transfected cells
T1 sequence (P00439 1-452 R408W): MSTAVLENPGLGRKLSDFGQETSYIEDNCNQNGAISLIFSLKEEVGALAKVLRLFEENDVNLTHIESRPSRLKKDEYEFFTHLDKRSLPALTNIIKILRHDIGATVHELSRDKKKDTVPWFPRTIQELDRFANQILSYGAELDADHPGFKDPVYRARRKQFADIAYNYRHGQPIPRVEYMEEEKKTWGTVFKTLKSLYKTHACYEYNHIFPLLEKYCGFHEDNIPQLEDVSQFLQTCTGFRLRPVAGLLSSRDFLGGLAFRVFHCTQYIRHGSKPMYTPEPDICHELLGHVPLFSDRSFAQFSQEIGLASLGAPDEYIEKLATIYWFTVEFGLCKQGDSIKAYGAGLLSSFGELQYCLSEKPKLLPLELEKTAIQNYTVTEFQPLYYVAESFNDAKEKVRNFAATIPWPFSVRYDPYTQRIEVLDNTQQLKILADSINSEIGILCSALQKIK
Description: Cell Based Phenylalanine Flux Assay.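 Note: after compound treatment, cells received sepiapterin plus isotope-labelled Phenylalanine for 4 hours, then labelled Tyrosine in the medium was quantified, 10-point 2-fold dilution series run in duplicate.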 To be noted: A375 cells expressing human R408W PAH; 24 hrs compound incubation; 13C-Tyrosine by LC-MS; average where tested multiple times; read-out: AC50.
In the case of `Cc1cccn2nc([C@H]3c4nc[nH]c4CCN3C(=O)c3nnc(C4CCC4)o3)cc12` [Example 1557, (R)-(5-cyclobutyl-1,3,4-oxadiazol-2-yl)(4-(4-methylpyrazolo[1,5-a]pyridin-2-yl)-6,7-dihydro-1H-imidazo[4,5-c]pyridin-5(4H)-yl)methanone], the AC50 fell in the range of 1000 to 5000 nM.

Regarding `O=C(c1nnc(C2CCC2)o1)N1CCc2[nH]cnc2[C@H]1c1cc2c(F)cccn2n1` [Example 1559, (S)-(5-cyclobutyl-1,3,4-oxadiazol-2-yl)(4-(4-fluoropyrazolo[1,5-a]pyridin-2-yl)-6,7-dihydro-1H-imidazo[4,5-c]pyridin-5(4H)-yl)methanone], the concentration at half-maximal activity (AC50) was under 500 nM. In the case of `O=C(c1nnc(C2CCC2)o1)N1CCc2[nH]cnc2[C@@H]1c1cc2cccc(Cl)n2n1` [Example 1560, (R)-(4-(7-chloropyrazolo[1,5-a]pyridin-2-yl)-6,7-dihydro-1H-imidazo[4,5-c]pyridin-5(4H)-yl)(5-cyclobutyl-1,3,4-oxadiazol-2-yl)methanone], the AC50 is over 5000 nM. On to `O=C(c1nnc(C2CCC2)o1)N1CCc2[nH]cnc2[C@H]1c1cc2cccc(Cl)n2n1` [Example 1561, (S)-(4-(7-chloropyrazolo[1,5-a]pyridin-2-yl)-6,7-dihydro-1H-imidazo[4,5-c]pyridin-5(4H)-yl)(5-cyclobutyl-1,3,4-oxadiazol-2-yl)methanone], for which the AC50 is under 500 nM. As for `Cc1cccc2cc([C@@H]3c4nc[nH]c4CCN3C(=O)c3nnc(C4CCC4)o3)nn12` [Example 1562, (S)-(5-cyclobutyl-1,3,4-oxadiazol-2-yl)(4-(7-methylpyrazolo[1,5-a]pyridin-2-yl)-6,7-dihydro-1H-imidazo[4,5-c]pyridin-5(4H)-yl)methanone], the AC50 fell in the range of 500 to 1000 nM. Regarding `Cc1cccc2cc([C@H]3c4nc[nH]c4CCN3C(=O)c3nnc(C4CCC4)o3)nn12` [Example 1563, (R)-(5-cyclobutyl-1,3,4-oxadiazol-2-yl)(4-(7-methylpyrazolo[1,5-a]pyridin-2-yl)-6,7-dihydro-1H-imidazo[4,5-c]pyridin-5(4H)-yl)methanone], the AC50 lay within 1000 to 5000 nM. As to `Cc1cc(-c2nnc(C(=O)N3CCc4[nH]cnc4[C@@H]3c3cc4cccc(F)n4n3)o2)nn1C` [Example 1564, (R)-(5-(1,5-dimethyl-1H-pyrazol-3-yl)-1,3,4-oxadiazol-2-yl)(4-(7-fluoropyrazolo[1,5-a]pyridin-2-yl)-6,7-dihydro-1H-imidazo[4,5-c]pyridin-5(4H)-yl)methanone], the AC50 was over 5000 nM.

On to `Cc1nn(C)cc1-c1nnc(C(=O)N2CCc3[nH]cnc3[C@H]2c2cc3cccc(F)n3n2)o1` [Example 1566, (S)-(5-(1,3-dimethyl-1H-pyrazol-4-yl)-1,3,4-oxadiazol-2-yl)(4-(7-fluoropyrazolo[1,5-a]pyridin-2-yl)-6,7-dihydro-1H-imidazo[4,5-c]pyridin-5(4H)-yl)methanone], for which the AC50 lay in the range of 500 to 1000 nM. To `Cc1nn(C)cc1-c1nnc(C(=O)N2CCc3[nH]cnc3[C@@H]2c2cc3cccc(F)n3n2)o1` [Example 1567, (R)-(5-(1,3-dimethyl-1H-pyrazol-4-yl)-1,3,4-oxadiazol-2-yl)(4-(7-fluoropyrazolo[1,5-a]pyridin-2-yl)-6,7-dihydro-1H-imidazo[4,5-c]pyridin-5(4H)-yl)methanone] belongs 1000 to 5000 nM; to `Cc1cnn(C)c1-c1nnc(C(=O)N2CCc3[nH]cnc3[C@@H]2c2cc3c(C(F)F)cccn3n2)o1` [Example 1569, (R)-(4-(4-(difluoromethyl)pyrazolo[1,5-a]pyridin-2-yl)-6,7-dihydro-1H-imidazo[4,5-c]pyridin-5(4H)-yl)(5-(1,4-dimethyl-1H-pyrazol-5-yl)-1,3,4-oxadiazol-2-yl)methanone], over 5000 nM; to `O=C(c1nnc(-c2cnn(C(F)(F)F)c2)o1)N1CCc2[nH]cnc2[C@H]1c1cc2c(C(F)F)cccn2n1` [Example 1570, (S)-(4-(4-(difluoromethyl)pyrazolo[1,5-a]pyridin-2-yl)-6,7-dihydro-1H-imidazo[4,5-c]pyridin-5(4H)-yl)(5-(1-(trifluoromethyl)-1H-pyrazol-4-yl)-1,3,4-oxadiazol-2-yl)methanone], under 500 nM.

Turning to `O=C(c1nnc(-c2cnn(C(F)(F)F)c2)o1)N1CCc2[nH]cnc2[C@@H]1c1cc2c(C(F)F)cccn2n1` [Example 1571, (R)-(4-(4-(difluoromethyl)pyrazolo[1,5-a]pyridin-2-yl)-6,7-dihydro-1H-imidazo[4,5-c]pyridin-5(4H)-yl)(5-(1-(trifluoromethyl)-1H-pyrazol-4-yl)-1,3,4-oxadiazol-2-yl)methanone], the AC50 was in the range of 1000 to 5000 nM. To `O=C(c1nnc(C2CCC2)o1)N1CCc2[nH]cnc2[C@@H]1c1cc2cccc(C(F)F)n2n1` [Example 1572, (R)-(5-cyclobutyl-1,3,4-oxadiazol-2-yl)(4-(7-(difluoromethyl)pyrazolo[1,5-a]pyridin-2-yl)-6,7-dihydro-1H-imidazo[4,5-c]pyridin-5(4H)-yl)methanone] belongs 1000 to 5000 nM; to `O=C(c1nnc(C2CCC2)o1)N1CCc2[nH]cnc2[C@H]1c1cc2cccc(C(F)F)n2n1` [Example 1573, (S)-(5-cyclobutyl-1,3,4-oxadiazol-2-yl)(4-(7-(difluoromethyl)pyrazolo[1,5-a]pyridin-2-yl)-6,7-dihydro-1H-imidazo[4,5-c]pyridin-5(4H)-yl)methanone], 500 to 1000 nM. Regarding `O=C(c1nnc(C2CCC2)o1)N1CCc2[nH]cnc2[C@@H]1c1cc2cccc(F)n2n1` [Example 1574, (R)-(5-cyclobutyl-1,3,4-oxadiazol-2-yl)(4-(7-fluoropyrazolo[1,5-a]pyridin-2-yl)-6,7-dihydro-1H-imidazo[4,5-c]pyridin-5(4H)-yl)methanone], the AC50 was 1000 to 5000 nM. For the compound `O=C(c1nnc(C2CCC2)o1)N1CCc2[nH]cnc2[C@H]1c1cc2cccc(F)n2n1` [Example 1575, (S)-(5-cyclobutyl-1,3,4-oxadiazol-2-yl)(4-(7-fluoropyrazolo[1,5-a]pyridin-2-yl)-6,7-dihydro-1H-imidazo[4,5-c]pyridin-5(4H)-yl)methanone], the half-maximal activity concentration (AC50) was under 500 nM. On to `COc1ccc(-c2nnc(C(=O)N3CCc4[nH]cnc4[C@H]3c3cc4cccc(C(F)F)n4n3)o2)nc1` [Example 1578, (S)-(4-(7-(difluoromethyl)pyrazolo[1,5-a]pyridin-2-yl)-6,7-dihydro-1H-imidazo[4,5-c]pyridin-5(4H)-yl)(5-(5-methoxypyridin-2-yl)-1,3,4-oxadiazol-2-yl)methanone], for which the AC50 was 500 to 1000 nM. With `COc1ccc(-c2nnc(C(=O)N3CCc4[nH]cnc4[C@@H]3c3cc4cccc(C(F)F)n4n3)o2)nc1` [Example 1579, (R)-(4-(7-(difluoromethyl)pyrazolo[1,5-a]pyridin-2-yl)-6,7-dihydro-1H-imidazo[4,5-c]pyridin-5(4H)-yl)(5-(5-methoxypyridin-2-yl)-1,3,4-oxadiazol-2-yl)methanone], the AC50 is over 5000 nM.

For the compound `O=C(c1nnc(-c2ncccc2F)o1)N1CCc2[nH]cnc2[C@H]1c1cc2cccc(C(F)F)n2n1` [Example 1580, (S)-(4-(7-(difluoromethyl)pyrazolo[1,5-a]pyridin-2-yl)-6,7-dihydro-1H-imidazo[4,5-c]pyridin-5(4H)-yl)(5-(3-fluoropyridin-2-yl)-1,3,4-oxadiazol-2-yl)methanone], the half-maximal activity concentration (AC50) was under 500 nM.

In general, AC50 refers to the concentration at which the activity in the assay is half-maximal.
